Patent US20240360114A1 (SIRONAX LTD., priority 2021, published 2024)

Tested on: HT-1080 cells
Assay: HT-1080 cell viability assay (ferroptosis induced by RSL3, Cell Titer-Glo)
Format: cell-based
Conditions: ferroptosis inducer RSL3, 20 hours, ferroptosis inhibitory activity, Table 3
Method in brief: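 Cells seeded overnight, then co-treated with RSL3 and compound (3-fold, 10-point dilution, top 1.1 μM) for 20 hours. Viability by CellTiter-Glo luminescence, normalized to untreated controls; EC50 from sigmoidal non-linear regression.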

Structure (SMILES)	EC50 (Homo sapiens, HT-1080, 20 h)	EC50
Cc1nc(N2CC[Si](C)(C)CC2)ccc1NC1CC2(C1)CC(C(N)=O)C2 (centres unmarked) [Compound 615, 6-((6-(4,4-dimethyl-1,4-azasilinan-1-yl)-2-methylpyridin-3-yl)amino)spiro[3.3]heptane-2-carboxamide]	0.1 to 100 nM	
Cc1nc(N(C)CCNCC(F)(F)F)ccc1NC1CC2(CC(N)C2)C1 (centres unmarked) [Compound 616, N^5-(6-aminospiro [3.3]heptan-2-yl)-N^2,6-dimethyl-N2-(2-((2,2,2-trifluoroethyl)amino)ethyl) pyridine-2,5-diamine]	0.1 to 100 nM	
Cc1nc(N2CCC(C)(C)CC2)ccc1NC[C@H]1CC[C@H](N)CC1 [Compound 617, N-(((1r,4r)-4-aminocyclohexyl)methyl)-6-(4,4-dimethylpiperidin-1-yl)-2-methylpyridin-3-amine]	0.1 to 100 nM	
CC[C@@H]1CN(c2ccc(N[C@H]3C[C@@H](N)C3)c(C)n2)C[C@H](C)O1 [Compound 618, (1s,3S)-N1-(6-((2R,6S)-2-ethyl-6-methylmorpholino)-2-methylpyridin-3-yl)cyclobutane-1,3-diamine]	100 to 1000 nM	
Cc1nc(N2CC(C)N(CC(F)(F)F)C(C)C2)ccc1NC1CC(N)C1 (centres unmarked) [Compound 619]	0.1 to 100 nM	
NC1CC2(C1)CC(Nc1ccc3cc(N4CCC(O)(C(F)(F)F)CC4)ccc3c1)C2 (centres unmarked) [Compound 620, 1-(6-((6-aminospiro[3.3]heptan-2-yl)amino)naphthalen-2-yl)-4-(trifluoromethyl)piperidin-4-ol]	0.1 to 100 nM	
Cc1nc(N2C[C@@H](C)O[C@@H](C)C2)ccc1NCC12C3C4C1C1C2C3C41CN (stereo partly drawn) [Compound 621, N-((4-(aminomethyl)cuban-1-yl)methyl)-6-((2S,6R)-2,6-dimethylmorpholino)-2-methylpyridin-3-amine]	0.1 to 100 nM	
Cc1cc(NC[C@H]2CC[C@H](N)CC2)ccc1NC(C)(C)C [Compound 622, N^4-(((1r,4r)-4-aminocyclohexyl)methyl)-N′-(tert-butyl)-2-methylbenzene-1,4-diamine]	0.1 to 100 nM	
Cc1nc(N2CCOC3(CC3)C2)ccc1NC1CC2(CC(N)C2)C1 (centres unmarked) [Compound 623, N^2-(2-methyl-6-(4-oxa-7-azaspiro[2.5]octan-7-yl)pyridin-3-yl)spiro[3.3]heptane-2,6-diamine]	0.1 to 100 nM	
Cc1nc(N2CC(C)OC(C)C2)ccc1NC1CCC2(CC1)CC(N)C2 (centres unmarked) [Compound 624, N^7-(6-(2,6-dimethylmorpholino)-2-methylpyridin-3-yl)spiro[3.5]nonane-2,7-diamine]	0.1 to 100 nM	
Cc1nc(N2CC[Si](C)(C)CC2)ccc1NC1CC2(CC(O)C2)C1 (centres unmarked) [Compound 625, 6-((6-(4,4-dimethyl-1,4-azasilinan-1-yl)-2-methylpyridin-3-yl)amino)spiro[3.3]heptan-2-ol]	0.1 to 100 nM	
Cc1nc(N2CCOC3(CCC3)C2)ccc1NC1CC2(CC(N)C2)C1 (centres unmarked) [Compound 626, N^2-(2-methyl-6-(5-oxa-8-azaspiro[3.5]nonan-8-yl)pyridin-3-yl)spiro[3.3]heptane-2,6-diamine]	0.1 to 100 nM	
Cc1nc(N2C[C@@H](C)O[C@@H](C)C2)ccc1NC12CCC(N)(CC1)C2 [Compound 627]	100 to 1000 nM	
Cc1cc(N2CC(C)(C)OC(C)(C)C2)ccc1NC1CC2(CC(N)C2)C1 (centres unmarked) [Compound 628, N^2-(2-methyl-4-(2,2,6,6-tetramethylmorpholino)phenyl)spiro[3.3]heptane-2,6-diamine]	0.1 to 100 nM	
CC1CN(c2ccc3cc(NC4CC(N)C4)ccc3c2)CCO1 (centres unmarked) [Compound 629, N^1-(6-(2-methylmorpholino)naphthalen-2-yl)cyclobutane-1,3-diamine]	0.1 to 100 nM	
CC1CN(c2ccc3cc(NC4CC(N)C4)ccc3c2)CCO1 (centres unmarked) [Compound 630, N^1-(6-(2-methylmorpholino)naphthalen-2-yl)cyclobutane-1,3-diamine]		0.1 to 100 nM
Cc1nc(N2C[C@@H](C)O[C@@H](C)C2)ccc1NC1CCCC(N)CCC1 (stereo partly drawn) [Compound 631, N1-(6-((2R,6S)-2,6-dimethylmorpholino)-2-methylpyridin-3-yl)cyclooctane-1,5-diamine]	0.1 to 100 nM	
CC1CN(c2ccc3cc(N[C@H]4CC[C@@H](C(N)=O)CC4)ccc3c2)CC(C)O1 (some centres unmarked) [Compound 632, (1s,4s)-4-((6-(2,6-dimethylmorpholino)naphthalen-2-yl)amino)cyclohexane-1-carboxamide]	0.1 to 100 nM	
NC(=O)N1CCC(Nc2ccc3cc(N4CCC(C(F)(F)F)CC4)ccc3c2)CC1 [Compound 633, 4-((6-(4-(trifluoromethyl)piperidin-1-yl)naphthalen-2-yl)amino)piperidine-1-carboxamide]	0.1 to 100 nM	
Cc1cc(N2CC[Si](C)(C)CC2)ccc1NC1CC2(CC(N)C2)C1 (centres unmarked) [Compound 634, N2-(4-(4.4-dimethyl-1,4-azasilinan-1-yl)-2-methylphenyl)spiro[3.3]heptane-2,6-diamine]	0.1 to 100 nM	
CCc1nc(N2CC(C)N(CC(F)(F)F)C(C)C2)c(F)cc1NC1CC(N)C1 (centres unmarked) [Compound 635, N1-(6-(3,5-dimethyl-4-(2,2,2-trifluoroethyl)piperazin-1-yl)-2-ethyl-5-fluoropyridin-3-yl)cyclobutane-1,3-diamine]	0.1 to 100 nM	

Structure (SMILES)	EC50 (Homo sapiens, HT-1080, 20 h)	EC50
Cc1cc(N2CC(C)N(CC(F)(F)F)C(C)C2)ccc1NC1CC2(CC(N)C2)C1 (centres unmarked) [Compound 636, N2-(4-(3,5-dimethyl-4-(2,2,2-trifluoroethyl)piperazin-1-yl)-2-methylphenyl)spiro[3.3]heptane-2,6-diamine]	0.1 to 100 nM	
C[C@@H]1CN(c2ccc(NC3CC4(CC(N)C4)C3)c(OC(F)F)n2)C[C@H](C)O1 (stereo partly drawn) [Compound 637, N^2-(2-(difluoromethoxy)-6-((25,6R)-2,6-dimethylmorpholino)pyridin-3-yl)spiro[3.3]heptane-2,6-diamine]	0.1 to 100 nM	
Cc1nc(N2CC[Si](C)(C)CC2)c(F)cc1NC1CC2(CC(N)C2)C1 (centres unmarked) [Compound 638, N^2-(6-(4,4-dimethyl-1,4-azasilinan-1-yl)-5-fluoro-2-methylpyridin-3-yl)spiro[3.3]heptane-2,6-diamine]	0.1 to 100 nM	
NC1CC2(C1)CC(Nc1ccc3nc(NCC(F)(F)F)ccc3c1)C2 (centres unmarked) [Compound 639, N^6-(6-aminospiro[3.3]heptan-2-yl)-N^2-(2,2,2-trifluoroethyl) quinoline-2,6-diamine]	0.1 to 100 nM	
CCc1cc(N2C[C@@H](C)O[C@@H](C)C2)ccc1NC1CC2(CC(N)C2)C1 (stereo partly drawn) [Compound 640, N2-(4-((25,6R)-2,6-dimethylmorpholino)-2-ethylphenyl)spiro[3.3]heptane-2,6-diamine]	0.1 to 100 nM	
Cc1nc(N2CC(C)N(CC(F)(F)F)C(C)C2)c(F)cc1NC1CC2(CC(N)C2)C1 (centres unmarked) [Compound 641, N^2-(6-(3,5-dimethyl-4-(2,2,2-trifluoroethyl)piperazin-1-yl)-5-fluoro-2-methylpyridin-3-yl)spiro [3.3]heptane-2,6-diamine]	0.1 to 100 nM	
Cc1nc(N2CC(C)N(C(=O)C(F)(F)F)C(C)C2)ccc1NC1CC2CCC(C1)N2 (centres unmarked) [Compound 642, 1-(4-(5-((8-azabicyclo[3.2.1]octan-3-yl)amino)-6-methylpyridin-2-yl)-2,6-dimethylpiperazin-1-yl)-2,2,2-trifluoroethan-1-one]	0.1 to 100 nM	
Cc1nc(N2CC(C)N(CC(F)(F)F)C(C)C2)ccc1NC1CC2CCC(C1)N2 (centres unmarked) [Compound 643, N-(6-(3,5-dimethyl-4-(2,2,2-trifluoroethyl)piperazin-1-yl)-2-methylpyridin-3-yl)-8-azabicyclo[3.2.1]octan-3-amine]	0.1 to 100 nM	
Cc1cc(N2CC(C)N(C(=O)C(F)(F)F)C(C)C2)ccc1NC1CC2(CC(N)C2)C1 (centres unmarked) [Compound 644, 1-(4-(4-((6-aminospiro[3.3]heptan-2-yl)amino)-3-methylphenyl)-2,6-dimethylpiperazin-1-yl)-2,2,2-trifluoroethan-1-one]	0.1 to 100 nM	
[2H]C1(Nc2ccc(N3C[C@@H](C)O[C@@H](C)C3)nc2C)CC2(CC(N)C2)C1 (some centres unmarked) [Compound 645]	0.1 to 100 nM	
CC1(C)CN(c2ccc3cc(NC4CC5(CC(N)C5)C4)ccc3n2)CC(C)(C)O1 (centres unmarked) [Compound 646, N2-(2-(2,2,6,6-tetramethylmorpholino)quinolin-6-yl)spiro[3.3]heptane-2,6-diamine]	0.1 to 100 nM	
Cc1cc(NC2CC3(CC(N)C3)C2)ccc1N1CC(C)N(C(=O)C(F)(F)F)C(C)C1 (centres unmarked) [Compound 647, 1-(4-(4-((6-aminospiro[3.3]heptan-2-yl)amino)-2-methylphenyl)-2,6-dimethylpiperazin-1-yl)-2,2,2-trifluoroethan-1-one]	0.1 to 100 nM	
CC1CN(c2ccc3cc(NC4CC5(CC(N)C5)C4)ccc3c2)CCO1 (centres unmarked) [Compound 648]	0.1 to 100 nM	
C[C@@H]1CN(c2ccc3cc(NC4CC(CN)C4)ccc3c2)C[C@H](C)O1 (stereo partly drawn) [Compound 649, N-(3-(aminomethyl)cyclobutyl)-6-((2S,6R)-2,6-dimethylmorpholino) naphthalen-2-amine]	0.1 to 100 nM	
COCCNc1ccc2cc(NC3CC4(CC(N)C4)C3)ccc2c1 (centres unmarked) [Compound 650, N2-(6-aminospiro [3.3]heptan-2-yl)-N6-(2-methoxyethyl) naphthalene-2,6-diamine]	0.1 to 100 nM	
CCCNc1ccc2cc(NC3CC4(CC(N)C4)C3)ccc2c1 (centres unmarked) [Compound 651, N^2-(6-aminospiro [3.3]heptan-2-yl)-N^6-propylnaphthalene-2,6-diamine]	0.1 to 100 nM	
NC1CC2(C1)CC(Nc1ccc3cc(N4CCOC(C(F)(F)F)C4)ccc3c1)C2 (centres unmarked) [Compound 653, N2-(6-(2-(trifluoromethyl)morpholino)naphthalen-2-yl)spiro[3.3]heptane-2,6-diamine]	0.1 to 100 nM	
CN(CC(F)(F)F)c1ccc2cc(NC3CC(N)C3)ccc2c1 (centres unmarked) [Compound 654]	0.1 to 100 nM	
CN(CC(F)(F)F)c1ccc2cc(NC3CC(N)C3)ccc2n1 (centres unmarked) [Compound 655, N^6-(3-aminocyclobutyl)-N^2-methyl-N^2-(2,2,2-trifluoroethyl) quinoline-2,6-diamine]	0.1 to 100 nM	
Cc1nc(N(C)CC(F)(F)F)ccc1NC1CC2CCC(C1)N2 (centres unmarked) [Compound 656, N^5-(8-azabicyclo[3.2.1]octan-3-yl)-N^2,6-dimethyl-N^2-(2,2,2-trifluoroethyl)pyridine-2,5-diamine]	0.1 to 100 nM	
